Experiments:
[1] = molecular target: T1, MMP-1FL (collagenase-1 full length enzyme) (Homo sapiens, UniProt P03956); assay: MMP inhibition, thiopeptolide substrate assay; type: biochemical; conditions: thiopeptolide substrate Ac-Pro-Leu-Gly-thioester-Leu-Leu-Gly-OEt
T1 construct: MMP-1FL (collagenase-1 full length enzyme)
T1 sequence (P03956 100-469): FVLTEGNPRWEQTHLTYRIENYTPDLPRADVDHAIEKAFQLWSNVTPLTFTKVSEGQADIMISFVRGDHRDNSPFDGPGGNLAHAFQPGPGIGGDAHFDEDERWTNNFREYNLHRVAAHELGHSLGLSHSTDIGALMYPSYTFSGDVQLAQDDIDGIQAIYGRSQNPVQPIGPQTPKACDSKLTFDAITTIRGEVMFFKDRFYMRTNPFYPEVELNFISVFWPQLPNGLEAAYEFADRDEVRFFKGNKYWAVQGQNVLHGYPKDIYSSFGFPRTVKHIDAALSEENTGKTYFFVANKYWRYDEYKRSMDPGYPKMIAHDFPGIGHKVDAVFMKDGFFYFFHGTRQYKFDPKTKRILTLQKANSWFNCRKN
Method: (§1) Experiments were carried out with the full-length and catalytic domains of the proteinases. […] IC50 values were determined using a thiopeptolide substrate, Ac-Pro-Leu-Gly-thioester-Leu-Leu-Gly-OEt (Ye Q.-Z., Johnson L. L., Hupe D. J., and Baragi V., “Purification and Characterization of the Human Stromelysin Catalytic Domain Expressed in Escherichia coli,” Biochemistry, 1992;31:11231-11235; Ye Q.-Z., Johnson L. L., Yu A. E., and Hupe D., “Reconstructed 19 kDa catalytic domain of gelatinase A is an active proteinase,” Biochemistry, 1995;34:4702-4708.) MMP-13CD was expressed from a synthetic gene and purified from Escherichia coli cell culture according to a previously described method (Ye Q.-Z., Johnson L. L., and Baragi V., “Gene synthesis and expression in E. coli for PUMP, a human matrix metalloproteinase,” Biochemical and Biophysical Research Communications, 1992; 186:143-149).

[2] = molecular target: T2, MMP-7FL (matrilysin full length enzyme) (Homo sapiens, UniProt P09237); assay: MMP inhibition, thiopeptolide substrate assay; type: biochemical; conditions: thiopeptolide substrate Ac-Pro-Leu-Gly-thioester-Leu-Leu-Gly-OEt
T2 construct: MMP-7FL (matrilysin full length enzyme)
T2 sequence (P09237 95-267): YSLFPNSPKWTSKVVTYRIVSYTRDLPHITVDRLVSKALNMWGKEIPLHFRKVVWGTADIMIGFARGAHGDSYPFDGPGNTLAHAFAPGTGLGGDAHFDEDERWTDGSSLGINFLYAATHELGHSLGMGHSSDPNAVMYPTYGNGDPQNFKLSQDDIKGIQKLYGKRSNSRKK
Method: as §1

[3] = molecular target: T3, MMP-13CD (collagenase-3 catalytic domain) (Homo sapiens, UniProt P45452); assay: MMP inhibition, thiopeptolide substrate assay; type: biochemical; conditions: thiopeptolide substrate Ac-Pro-Leu-Gly-thioester-Leu-Leu-Gly-OEt; catalytic domain expressed in Escherichia coli from a synthetic gene
T3 construct: MMP-13CD (collagenase-3 catalytic domain); made in house; host or cells: Escherichia coli
Method: as §1

[4] = molecular target: T4, MMP-3CD (stromelysin-1 catalytic domain) (Homo sapiens, UniProt P08254); assay: MMP inhibition, thiopeptolide substrate assay; type: biochemical; conditions: thiopeptolide substrate Ac-Pro-Leu-Gly-thioester-Leu-Leu-Gly-OEt
T4 construct: MMP-3CD (stromelysin-1 catalytic domain)
Method: as §1

[5] = molecular target: MMP-2CD (gelatinase A catalytic domain) (Homo sapiens, UniProt P08253); assay: MMP inhibition, thiopeptolide substrate assay; type: biochemical; conditions: thiopeptolide substrate Ac-Pro-Leu-Gly-thioester-Leu-Leu-Gly-OEt
Method: as §1

[6] = molecular target: T5, MMP-2FL (gelatinase A full length enzyme) (Homo sapiens, UniProt P08253); assay: MMP inhibition, thiopeptolide substrate assay; type: biochemical; conditions: thiopeptolide substrate Ac-Pro-Leu-Gly-thioester-Leu-Leu-Gly-OEt
T5 construct: MMP-2FL (gelatinase A full length enzyme)
T5 sequence (P08253 110-660): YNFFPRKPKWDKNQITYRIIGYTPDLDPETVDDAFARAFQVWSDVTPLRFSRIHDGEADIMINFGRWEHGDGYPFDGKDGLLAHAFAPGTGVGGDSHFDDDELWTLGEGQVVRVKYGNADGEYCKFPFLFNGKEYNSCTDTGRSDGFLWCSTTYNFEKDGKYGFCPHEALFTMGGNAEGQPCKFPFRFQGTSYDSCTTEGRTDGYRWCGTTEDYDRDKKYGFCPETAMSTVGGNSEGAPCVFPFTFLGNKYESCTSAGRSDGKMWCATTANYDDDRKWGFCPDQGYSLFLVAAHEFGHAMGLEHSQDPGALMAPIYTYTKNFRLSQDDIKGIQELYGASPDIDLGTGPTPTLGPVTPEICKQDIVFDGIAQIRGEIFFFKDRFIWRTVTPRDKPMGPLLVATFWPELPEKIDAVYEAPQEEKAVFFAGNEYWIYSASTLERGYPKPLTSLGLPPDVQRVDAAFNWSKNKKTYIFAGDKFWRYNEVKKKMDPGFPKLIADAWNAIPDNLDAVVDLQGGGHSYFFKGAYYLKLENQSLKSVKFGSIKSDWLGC
Method: as §1

[7] = molecular target: T6, MMP-14CD (membrane-type MMP-1) (Homo sapiens, UniProt P50281); assay: MMP inhibition, thiopeptolide substrate assay; type: biochemical; conditions: thiopeptolide substrate Ac-Pro-Leu-Gly-thioester-Leu-Leu-Gly-OEt; catalytic domain
T6 construct: Experiments were carried out with the full-length and catalytic domains of the proteinases
Method: as §1

[8] = molecular target: T7, MMP-9-FL (gelatinase B full length enzyme) (Homo sapiens, UniProt P14780); assay: MMP inhibition, thiopeptolide substrate assay; type: biochemical; conditions: thiopeptolide substrate Ac-Pro-Leu-Gly-thioester-Leu-Leu-Gly-OEt
T7 construct: MMP-9-FL (gelatinase B full length enzyme)
Method: as §1

MMP-2CD (gelatinase A catalytic domain), sequence (P08253 with tags, fused parts or gaps DEL222-396): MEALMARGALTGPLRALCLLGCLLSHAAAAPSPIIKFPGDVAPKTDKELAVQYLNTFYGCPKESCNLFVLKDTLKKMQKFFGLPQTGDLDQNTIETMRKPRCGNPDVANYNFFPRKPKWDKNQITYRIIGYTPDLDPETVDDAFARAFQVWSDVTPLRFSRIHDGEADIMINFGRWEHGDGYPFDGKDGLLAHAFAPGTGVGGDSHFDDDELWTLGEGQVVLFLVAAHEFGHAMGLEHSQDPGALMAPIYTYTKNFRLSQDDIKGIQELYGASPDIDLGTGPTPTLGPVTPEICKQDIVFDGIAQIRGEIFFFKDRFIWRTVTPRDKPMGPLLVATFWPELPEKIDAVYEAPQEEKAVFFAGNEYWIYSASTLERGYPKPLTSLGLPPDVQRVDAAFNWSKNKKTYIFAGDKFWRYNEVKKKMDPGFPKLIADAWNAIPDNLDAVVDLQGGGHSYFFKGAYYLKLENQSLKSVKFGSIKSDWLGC
T4 sequence (P08254 100-272 limits assumed): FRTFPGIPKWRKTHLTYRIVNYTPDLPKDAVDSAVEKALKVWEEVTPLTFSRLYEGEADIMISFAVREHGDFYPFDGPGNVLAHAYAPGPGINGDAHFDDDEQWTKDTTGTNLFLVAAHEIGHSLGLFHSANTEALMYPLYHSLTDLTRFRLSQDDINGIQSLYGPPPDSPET
T7 sequence (P14780 94-707): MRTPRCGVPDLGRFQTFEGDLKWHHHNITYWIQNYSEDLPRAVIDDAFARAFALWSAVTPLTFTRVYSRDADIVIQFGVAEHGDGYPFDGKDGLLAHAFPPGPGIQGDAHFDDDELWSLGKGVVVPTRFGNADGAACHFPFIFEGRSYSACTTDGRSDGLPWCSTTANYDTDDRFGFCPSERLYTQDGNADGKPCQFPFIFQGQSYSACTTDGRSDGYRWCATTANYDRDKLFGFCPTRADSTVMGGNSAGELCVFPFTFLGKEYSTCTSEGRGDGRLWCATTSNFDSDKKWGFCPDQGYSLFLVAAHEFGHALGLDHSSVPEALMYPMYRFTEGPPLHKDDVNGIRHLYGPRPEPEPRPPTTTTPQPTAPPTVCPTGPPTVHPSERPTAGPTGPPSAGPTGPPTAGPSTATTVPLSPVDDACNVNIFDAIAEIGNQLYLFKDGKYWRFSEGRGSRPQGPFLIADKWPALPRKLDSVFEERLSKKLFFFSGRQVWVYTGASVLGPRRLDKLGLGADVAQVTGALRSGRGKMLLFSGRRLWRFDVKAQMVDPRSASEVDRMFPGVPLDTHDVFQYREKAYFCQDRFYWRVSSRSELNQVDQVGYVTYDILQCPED

SMILES	IC50 [1] [µM]	IC50 [2] [µM]	IC50 [3] [µM]	IC50 [4] [µM]	IC50 [5] [µM]	IC50 [6] [µM]	IC50 [7] [µM]	IC50 [8] [µM]	melting point [°C]
CN1C(=O)N(CC(CC(=O)c2ccc3c4c(oc3c2)CCCC4)C(=O)O)C(=O)C1(C)C (stereo not shown) [Example 3, 4-Oxo-4-(6,7,8,9-tetrahydro-dibenzofuran-3-yl)-2-(3,4,4-trimethyl-2,5-dioxo-imidazolidin-1-ylmethyl)-butyric acid]	31	86	1.42	0.315	0.0585	0.945	2	14	
O=C(O)CCC(=NO)c1ccc2c3c(oc2c1)CCCC3 [Example 1, 4-Hydroxyimino4-(6,7,8,9-tetrahydro-dibenzofuran-3-yl)-butyric acid]			1.21	0.114	0.0183	0.0595	0.24	32	164
O=C(CC(CCCc1ccccc1)C(=O)O)c1ccc2c3c(oc2c1)CCCC3 (stereo not shown) [Example 2, 2-[2-Oxo-2-(6,7,8,9-tetrahydro-dibenzofuran-3-yl)-ethyl]-5-phenyl-pentanoic acid]	67	84	9.7	0.13	0.096	0.445	0.82		
